From PMC11465619 (ACS Omega, 2024)

Key:
[1] = target: horse reddish butyrylcholinesterase (BChE, EC 3.1.1.8) (Equus caballus, UniProt P81908); experiment: biochemical; conditions: for IC50: mean ± SEM of three parallel measurements
Description: (§1) The electric eel acetylcholinesterase (AChE, Type–VI-S, EC 3.1.1.7, 425.84 U/mg) and horse reddish butyrylcholinesterase (BChE, EC 3.1.1.8, 11.4 U/mg) were used to determine the anticholinesterase activity. […] After incubation for 15 min at 25 °C, 20 μL 0.5 mM DTNB (5,50-dithiobis(2-nitrobenzoic acid)) and 20 μL acetylthiocholine iodide (0.71 mM) or butyryl-thiocholine chloride (0.2 mM) were added. Then, the absorbance was measured at 412 nm.
(§2) Lineweaver–Burk plots were drawn from the data obtained as a result of the experimental study.[24]

[2] = target: T1, electric eel acetylcholinesterase (AChE, Type–VI-S, EC 3.1.1.7) (Electrophorus electricus, UniProt O42275); experiment: biochemical; conditions: for IC50: mean ± SEM of three parallel measurements
T1 construct: purchased Type–VI-S
T1 sequence (O42275 24-633): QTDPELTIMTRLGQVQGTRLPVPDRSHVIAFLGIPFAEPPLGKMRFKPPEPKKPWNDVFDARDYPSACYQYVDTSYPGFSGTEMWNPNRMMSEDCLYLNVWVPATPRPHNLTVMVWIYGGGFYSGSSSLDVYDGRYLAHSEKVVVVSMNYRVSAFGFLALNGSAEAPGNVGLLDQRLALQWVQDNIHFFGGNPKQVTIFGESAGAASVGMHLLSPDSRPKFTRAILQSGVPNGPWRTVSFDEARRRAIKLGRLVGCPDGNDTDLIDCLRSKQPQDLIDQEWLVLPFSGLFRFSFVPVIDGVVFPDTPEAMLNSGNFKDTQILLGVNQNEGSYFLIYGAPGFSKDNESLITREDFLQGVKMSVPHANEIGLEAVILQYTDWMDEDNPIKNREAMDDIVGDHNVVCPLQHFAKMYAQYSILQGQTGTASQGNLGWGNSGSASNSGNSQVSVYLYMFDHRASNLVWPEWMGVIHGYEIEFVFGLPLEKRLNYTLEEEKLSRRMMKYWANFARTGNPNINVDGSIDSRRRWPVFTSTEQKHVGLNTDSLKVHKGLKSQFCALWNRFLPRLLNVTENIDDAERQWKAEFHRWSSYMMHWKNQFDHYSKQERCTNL
Description: as §1, §2

Sequence of horse reddish butyrylcholinesterase (BChE, EC 3.1.1.8) (P81908 whole entry): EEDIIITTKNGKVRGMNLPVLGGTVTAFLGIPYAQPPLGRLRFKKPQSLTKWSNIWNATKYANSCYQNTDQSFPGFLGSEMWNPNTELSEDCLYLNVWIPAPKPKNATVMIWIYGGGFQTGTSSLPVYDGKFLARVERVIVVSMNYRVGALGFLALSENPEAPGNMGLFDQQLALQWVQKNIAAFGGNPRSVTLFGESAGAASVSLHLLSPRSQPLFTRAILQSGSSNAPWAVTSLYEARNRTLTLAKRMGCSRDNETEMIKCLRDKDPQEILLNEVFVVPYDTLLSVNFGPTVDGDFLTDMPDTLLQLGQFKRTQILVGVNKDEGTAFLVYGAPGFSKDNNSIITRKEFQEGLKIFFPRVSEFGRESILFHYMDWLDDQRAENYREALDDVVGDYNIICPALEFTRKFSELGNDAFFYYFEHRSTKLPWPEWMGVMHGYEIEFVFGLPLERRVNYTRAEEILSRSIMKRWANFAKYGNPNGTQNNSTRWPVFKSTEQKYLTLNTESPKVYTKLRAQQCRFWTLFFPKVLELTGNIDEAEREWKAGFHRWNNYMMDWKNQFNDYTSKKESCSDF

Row | Compound | IC50 [1] [µM] | IC50 [2] [µM] | type of inhibition of BChE (Lineweaver–Burk plots) [1] | Ki ([1]; competitive inhibition, read-out: inhibition constant for BChE (Lineweaver–Burk plots)) [µM] | type of inhibition of AChE (Lineweaver–Burk plots) [2] | AChE inhibitory activity relative to the standard galantamine ([2]; compared with galantamine) | Ki ([2]; competitive inhibition, read-out: inhibition constant for AChE (Lineweaver–Burk plots)) [µM]
1 | O=S(=O)(N/N=C/c1ccccc1O)c1ccc(F)cc1 [Compound 1, (E)-4-Fluoro-N′-(2-hydroxybenzylidene)benzenesulfonohydrazide] | 124.4 ± 0.28 | 117.5 ± 0.38 |  |  |  |  | 
2 | O=S(=O)(N/N=C/c1ccccc1O)c1ccccc1C(F)(F)F [Compound 2, (E)-N′-(2-Hydroxybenzylidene)-2-(trifluoromethyl)benzenesulfonohydrazide] | 100.1 ± 0.12 | 91.77 ± 0.33 |  |  |  |  | 
3 | O=S(=O)(N/N=C/c1ccccc1O)c1cccc(C(F)(F)F)c1 [Compound 3, (E)-N′-(2-Hydroxybenzylidene)-3-(trifluoromethyl)benzenesulfonohydrazide] | 119.8 ± 0.17 | 104.2 ± 0.56 |  |  |  |  | 
4 | O=S(=O)(N/N=C/c1ccccc1O)c1ccc(C(F)(F)F)cc1 [Compound 4, (E)-N′-(2-Hydroxybenzylidene)-4-(trifluoromethyl)benzenesulfonohydrazide] | 75.34 ± 0.18 | 68.67 ± 0.43 |  |  |  |  | 
5 | O=S(=O)(N/N=C/c1ccccc1O)c1ccccc1OC(F)(F)F [Compound 5, (E)-N′-(2-Hydroxybenzylidene)-2-(trifluoromethoxy)benzenesulfonohydrazide] | 69 ± 1.06 | 53.1 ± 0.58 |  |  |  |  | 
6 | O=S(=O)(N/N=C/c1ccccc1O)c1cccc(OC(F)(F)F)c1 [Compound 6, (E)-N′-(2-Hydroxybenzylidene)-3-(trifluoromethoxy)benzenesulfonohydrazide] | 86.4 ± 0.14 | 80.3 ± 0.91 |  |  |  |  | 
7 | O=S(=O)(N/N=C/c1ccccc1O)c1ccc(OC(F)(F)F)cc1 [Compound 7, (E)-N′-(2-Hydroxybenzylidene)-4-(trifluoromethoxy)benzenesulfonohydrazide] | 40.3 ± 0.66 | 29.1 ± 0.94 | competitively | 41.7 ± 3.18 | competitively | seven times lower | 28.2 ± 2.51
